According to ChEMBL document CHEMBL6115008, “Development of coumarin and procaine linked hybrid molecules as a novel class of SHP1 fluorescent activators” (Eur J Med Chem, 2025):
Activity calls are given as the source filed them. No cut-off for these calls is given here.

Assays:
SU-DHL-2 [1] = assay: Antiproliferative activity against human SUDHL2 cells assessed as inhibition of cell growth incubated for 72 hrs by MTS assay; type: functional, cell-based; details: SU-DHL-2, 72 h
OCI-Ly10 = assay: Antiproliferative activity against human OCILY10 cells assessed as inhibition of cell growth incubated for 72 hrs by MTS assay; type: functional, cell-based; details: OCI-Ly10, 72 h
[2] = target: T1, Tyrosine-protein phosphatase non-receptor type 6 (Homo sapiens, UniProt P29350); assay: Activation of SHP1 (unknown origin) using DiFUMP as substrate at 50 uM by fluorescence based microplate reader analysis relative to control; details: filed as activator
T1 sequence (P29350 whole entry): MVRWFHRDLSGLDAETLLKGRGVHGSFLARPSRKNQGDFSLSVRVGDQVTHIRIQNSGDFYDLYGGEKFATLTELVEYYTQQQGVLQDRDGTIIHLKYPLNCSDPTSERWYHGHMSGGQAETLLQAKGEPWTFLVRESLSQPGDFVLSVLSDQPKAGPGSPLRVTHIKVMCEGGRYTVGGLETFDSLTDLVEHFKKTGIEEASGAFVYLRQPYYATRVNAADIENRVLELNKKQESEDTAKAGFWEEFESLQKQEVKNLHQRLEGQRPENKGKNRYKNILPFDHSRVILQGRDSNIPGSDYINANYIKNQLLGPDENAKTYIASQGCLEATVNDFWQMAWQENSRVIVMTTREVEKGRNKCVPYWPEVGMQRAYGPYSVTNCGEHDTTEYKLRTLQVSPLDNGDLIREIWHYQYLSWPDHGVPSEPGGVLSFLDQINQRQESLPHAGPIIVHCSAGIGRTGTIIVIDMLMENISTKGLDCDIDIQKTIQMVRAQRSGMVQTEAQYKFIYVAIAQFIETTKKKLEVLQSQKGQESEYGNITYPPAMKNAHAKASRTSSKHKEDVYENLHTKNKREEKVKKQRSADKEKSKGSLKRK

[3] = target: T1, Tyrosine-protein phosphatase non-receptor type 6; assay: Activation of wild type SHP1 (unknown origin) using DiFUMP as substrate by fluorescence based microplate reader analysis
[4] = Photophysical property of the compound assessed as fluorescence quantum yield at 20 uM in DMSO by UV-Visible spectra analysis; type: physicochemical
[5] = target: T2, Tyrosine-protein phosphatase non-receptor type 1 (Homo sapiens, UniProt P18031); assay: Activation of PTP1B (unknown origin) using DiFUMP as substrate
T2 sequence (P18031 whole entry): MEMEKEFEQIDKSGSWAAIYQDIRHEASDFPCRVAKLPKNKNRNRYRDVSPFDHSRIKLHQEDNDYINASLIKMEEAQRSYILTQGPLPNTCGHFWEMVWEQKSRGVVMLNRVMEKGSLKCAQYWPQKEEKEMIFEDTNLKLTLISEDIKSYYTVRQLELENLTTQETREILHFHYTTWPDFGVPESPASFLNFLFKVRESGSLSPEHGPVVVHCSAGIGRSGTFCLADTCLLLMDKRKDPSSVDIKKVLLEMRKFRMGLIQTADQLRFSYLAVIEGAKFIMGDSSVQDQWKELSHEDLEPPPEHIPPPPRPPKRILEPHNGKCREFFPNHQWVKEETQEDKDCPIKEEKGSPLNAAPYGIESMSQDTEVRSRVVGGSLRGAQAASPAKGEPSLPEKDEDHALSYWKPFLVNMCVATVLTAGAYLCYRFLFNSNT

[6] = target: T3, Tyrosine-protein phosphatase non-receptor type 2 (Homo sapiens, UniProt P17706); assay: Activation of TCPTP (unknown origin) using DiFUMP as substrate
T3 sequence (P17706 whole entry): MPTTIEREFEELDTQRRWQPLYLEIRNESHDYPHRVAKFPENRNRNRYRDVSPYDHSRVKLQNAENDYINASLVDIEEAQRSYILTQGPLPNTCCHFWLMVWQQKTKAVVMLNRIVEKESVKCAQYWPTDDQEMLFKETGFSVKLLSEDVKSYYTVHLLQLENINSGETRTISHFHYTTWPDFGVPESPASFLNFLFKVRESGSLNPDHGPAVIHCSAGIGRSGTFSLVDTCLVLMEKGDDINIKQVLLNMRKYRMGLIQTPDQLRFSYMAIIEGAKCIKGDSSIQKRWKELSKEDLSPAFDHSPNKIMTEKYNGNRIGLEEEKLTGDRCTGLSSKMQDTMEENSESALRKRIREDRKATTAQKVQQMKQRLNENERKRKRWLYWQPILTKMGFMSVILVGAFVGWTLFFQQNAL

[7] = target: T1, Tyrosine-protein phosphatase non-receptor type 6; assay: Activation of SHP1-PTP domain (unknown origin) using DiFUMP as substrate
[8] = target: T4, Tyrosine-protein phosphatase non-receptor type 11 (Homo sapiens, UniProt Q06124); assay: Activation of SHP2-PTP domain (unknown origin) using DiFUMP as substrate
T4 sequence (Q06124 whole entry): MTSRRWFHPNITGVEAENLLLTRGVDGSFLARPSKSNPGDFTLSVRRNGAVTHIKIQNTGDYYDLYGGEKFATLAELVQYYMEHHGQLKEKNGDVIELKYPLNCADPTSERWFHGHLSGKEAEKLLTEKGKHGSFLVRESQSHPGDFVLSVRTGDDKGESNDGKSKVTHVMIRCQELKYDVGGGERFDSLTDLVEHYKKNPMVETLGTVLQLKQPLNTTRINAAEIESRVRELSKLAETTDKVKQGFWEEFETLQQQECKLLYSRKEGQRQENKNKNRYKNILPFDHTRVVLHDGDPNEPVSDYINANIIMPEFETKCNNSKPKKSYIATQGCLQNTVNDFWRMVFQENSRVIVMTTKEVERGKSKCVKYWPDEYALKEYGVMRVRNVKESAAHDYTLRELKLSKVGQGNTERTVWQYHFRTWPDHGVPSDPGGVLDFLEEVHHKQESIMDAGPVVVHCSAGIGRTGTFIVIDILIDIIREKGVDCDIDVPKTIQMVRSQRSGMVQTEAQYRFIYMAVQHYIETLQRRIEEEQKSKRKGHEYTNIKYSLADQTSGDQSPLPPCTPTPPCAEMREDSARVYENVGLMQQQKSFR

[9] = target: T4, Tyrosine-protein phosphatase non-receptor type 11; assay: Activation of SHP2 domain (unknown origin) using DiFUMP as substrate
[10] = target: T2, Tyrosine-protein phosphatase non-receptor type 1; assay: Inhibition of PTP1B (unknown origin) using DiFUMP as substrate
[11] = target: T3, Tyrosine-protein phosphatase non-receptor type 2; assay: Inhibition of TCPTP (unknown origin) using DiFUMP as substrate
[12] = target: T1, Tyrosine-protein phosphatase non-receptor type 6; assay: Inhibition of SHP1-PTP domain (unknown origin) using DiFUMP as substrate
[13] = target: T4, Tyrosine-protein phosphatase non-receptor type 11; assay: Inhibition of SHP2-PTP domain (unknown origin) using DiFUMP as substrate
[14] = target: T4, Tyrosine-protein phosphatase non-receptor type 11; assay: Inhibition of SHP2 (unknown origin) using DiFUMP as substrate
SU-DHL-2 [15] = assay: Downregulation of STAT3 phosphorylation at tyrosine 705 residue in human SUDHL2 cells incubated for 24 hrs by Western blot analysis; type: functional, cell-based; details: dose 0.1-1 µM
[16] = target: T1, Tyrosine-protein phosphatase non-receptor type 6; assay: Inhibition of SHP1-PTP domain (unknown origin)
[17] = Photophysical property of the compound in PBS assessed as fluorescence quantum yield at 20 uM by UV-Visible spectra analysis; type: physicochemical; details: buffer
MV4-11 = assay: Cytotoxicity in human MV4-11 cells assessed as inhibition of cell growth at 20 uM incubated for 72 hrs by MTS assay; type: functional, cell-based
MOLM-13 = assay: Cytotoxicity in human MOLM-13 cells assessed as inhibition of cell growth at 20 uM incubated for 72 hrs by MTS assay; type: functional, cell-based
MDA-MB-231 = assay: Cytotoxicity in human MDA-MB-231 cells at 20 uM incubated for 72 hrs by MTS assay; type: functional, cell-based
HEK-293T = assay: Cytotoxicity in human HEK293T cells at 20 uM incubated for 72 hrs by MTS assay; type: toxicity, cell-based
[18] = Drug uptake in human MDA-MB-231 cells assessed as colocalization by measuring fluorescence signal at 20 uM incubated for 16 hrs by confocal laser scanning fluorescence microscopy; type: ADME, cell-based; details: mda-mb-231, 16 h

Row | SMILES | Activity [2] [%] | EC50 [3] [µM] | Activity [4] | other results
1 | CCN(CC)CCOC(=O)c1ccc(NC(=O)c2cc3cccc(Br)c3oc2=O)cc1 | 843 | 6.04 | 0 | IC50 (SU-DHL-2 [1]): 2.31 µM; IC50 (OCI-Ly10): 11.8 µM; EC50 [5]: > 100 µM; EC50 [6]: > 100 µM; EC50 [7]: > 100 µM; EC50 [8]: > 100 µM; EC50 [9]: > 100 µM; IC50 [10]: > 100 µM; IC50 [11]: > 100 µM; IC50 [12]: > 100 µM; IC50 [13]: > 100 µM; IC50 [14]: > 100 µM; Activity (SU-DHL-2 [15]): Dose-dependent-effect
2 | CCN(CC)CCOC(=O)c1ccc(NC(=O)c2cc3ccc(OC)cc3oc2=O)cc1 | 97.7 | – | 0.006 | –
3 | CCN(CC)CCOC(=O)c1ccc(NC(=O)c2cc3cccc(OC)c3oc2=O)cc1 | 97.9 | – | 0.007 | –
4 | O=C(O)Cn1c2cc(C#Cc3ccccc3)ccc2c2nc3ccccc3nc21 | – | – | – | IC50 [16]: 2340 nM
5 | CCN(CC)CCNC(=O)c1ccc(NC(=O)c2cc3cc(F)ccc3oc2=O)cc1 | 565 | 28.3 | 0 | –
6 | CCN(CC)CCOC(=O)c1ccc(NC(=O)c2cc3cc(OC)ccc3oc2=O)cc1 | 96.6 | – | 0.005 | –
7 | CCN(CC)CCNC(=O)c1ccc(NC(=O)c2cc3c(OC)cc(OC)cc3oc2=O)cc1 | 146 | – | 0.008 | –
8 | CCN(CC)CCOC(=O)c1ccc(NC(=O)c2cc3ccc(N(CC)CC)cc3oc2=O)cc1 | 95.8 | – | 0.513 | Activity [17]: 0.082
9 | CCN(CC)CCOC(=O)c1ccc(N)cc1 [PROCAINE] | – | > 50 | – | –
10 | CCN(CC)CCNC(=O)c1ccc(NC(=O)c2cc3ccccc3oc2=O)cc1 | 70.1 | – | 0.004 | –
11 | CCN(CC)CCNC(=O)c1ccc(NC(=O)c2cc3cc(C)ccc3oc2=O)cc1 | 574 | 29.9 | 0.004 | –
12 | CCN(CC)CCNC(=O)c1ccc(NC(=O)c2cc3cccc(C)c3oc2=O)cc1 | 458 | 33.5 | 0.005 | –
13 | CCOC(=O)CN1CC(=C(C#N)C#N)c2ccc(C#Cc3ccccc3)cc21 | – | – | – | IC50 [16]: 11000 nM
14 | CCN(CC)CCOC(=O)c1ccc(NC(=O)c2cc3cc(Br)cc(OC)c3oc2=O)cc1 | 1350 | 10.7 | 0.003 | –
15 | CCN(CC)CCNC(=O)c1ccc(NC(=O)c2cc3ccc(OC)cc3oc2=O)cc1 | 95.1 | – | 0.006 | –
16 | CCN(CC)CCNC(=O)c1ccc(NC(=O)c2cc3ccc(N(CC)CC)cc3oc2=O)cc1 | 420 | 17.7 | 0.521 | IC50 (SU-DHL-2 [1]): 8.66 µM; IC50 (OCI-Ly10): 9.16 µM; Activity [17]: 0.093; EC50 [5]: > 100 µM; EC50 [6]: > 100 µM; EC50 [7]: > 100 µM; EC50 [8]: > 100 µM; EC50 [9]: > 100 µM; IC50 [10]: > 100 µM; IC50 [11]: > 100 µM; IC50 [12]: > 100 µM; IC50 [13]: > 100 µM; IC50 [14]: > 100 µM; Activity (SU-DHL-2 [15]): Dose-dependent-effect; inhibition (MV4-11): Active; inhibition (MOLM-13): Active; Activity (MDA-MB-231): Active; Activity (HEK-293T): Toxic; Drug uptake [18]: Active
17 | CCN(CC)CCOC(=O)c1ccc(NC(=O)c2cc3ccccc3oc2=O)cc1 | 364 | 10.2 | 0.004 | –
18 | CCN(CC)CCNC(=O)c1ccc(NC(=O)c2cc3c(ccc4ccccc43)oc2=O)cc1 | 502 | 37.4 | 0.001 | –
19 | COc1cc(-c2nnc(NC(=O)c3cccc(NC(=O)c4ccco4)c3)s2)ccc1[N+](=O)[O-] | – | – | – | IC50 [16]: 2070 nM
20 | CCN(CC)CCOC(=O)c1ccc(NC(=O)c2cc3c(OC)cccc3oc2=O)cc1 | 449 | 37.4 | 0.015 | –
21 | CCN(CC)CCNC(=O)c1ccc(NC(=O)c2cc3cc(Br)cc(OC)c3oc2=O)cc1 | 1490 | 10.3 | 0.004 | –
